For 17 compounds, IC50 results are on record in US20230348442A1, “GALECTIN-3 INHIBITING 2-HYDROXYCYCLOALKANE-1-CARBAMOYL DERIVATIVES” (Idorsia Pharmaceuticals Ltd, priority 2020, published 2023).

For orientation: IC50 means the concentration that inhibits the measured activity by half. The low end stands for greater potency, the high end for weaker potency.

human Gal-3 (hGal-3), sequence (P17931 whole entry): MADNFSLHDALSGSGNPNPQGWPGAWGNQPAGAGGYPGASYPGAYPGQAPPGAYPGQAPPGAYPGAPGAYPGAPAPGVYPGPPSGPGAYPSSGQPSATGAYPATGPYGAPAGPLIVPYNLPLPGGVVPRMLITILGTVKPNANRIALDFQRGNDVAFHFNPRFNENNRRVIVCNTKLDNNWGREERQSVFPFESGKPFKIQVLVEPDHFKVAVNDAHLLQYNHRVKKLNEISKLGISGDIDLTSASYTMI

The experiment has as its target human Gal-3 (hGal-3) (Homo sapiens (Human), UniProt P17931). Briefly: competitive binding assay: binding of biotinylated hGal-3 to microplate-adsorbed asialofetuin (ASF), spectrophotometric. To be noted: Activity on hGal-3; mean values of several measurements. On the procedure:
Evaluation of Compound Inhibitory Activity (IC50)
The inhibitory activity of compounds is determined in competitive binding assays. This spectrophotometric assay measures the binding of biotinylated human Gal-3 (hGal-3) or human Gal-1 (hGal-1), respectively, to a microplate-adsorbed glycoprotein, asialofetuin (ASF) (Proc Natl Acad Sci USA. 2013 Mar. 26; 110(13):5052-7.). Alternatively, and preferably, a human Gal-1 version in which all six cysteines are substituted by serines may be used.
Briefly, compounds are serially diluted in DMSO (working dilutions). ASF-coated 384 well plates are supplemented with 22.8 μL/well of biotinylated hGal-3 or hGal-1 in assay buffer (i.e. 300-1000 ng/mL biotinylated hGal-3 or hGal-1) to which 1.2 μL of compound working dilutions are added and mixed.
Plates are incubated for 3 hours at 4° C., then washed with cold assay buffer (3×50 uL), incubated for 1 hour with 25 μL/well of a streptavidin-peroxidase solution (diluted in assay buffer to 80 ng/mL) at 4° C., followed by further washing steps with assay buffer (3×50 uL). Finally, 25 μL/well of ABTS substrate is added.
The calculated IC50 values may fluctuate depending on the daily assay performance. Fluctuations of this kind are known to those skilled in the art. IC50 values from several measurements are given as mean values.
Compound `COc1cc(-c2cn([C@H]3[C@@H](O)[C@@H](CO)O[C@@H](C(=O)N(c4cc(Cl)cc(Cl)c4)[C@H]4CCC[C@@H]4O)[C@@H]3OC)nn2)cc(F)c1F` [Example 1.3.2, (2R,3R,4S,5R,6R)-N-(3,5-dichlorophenyl)-4-(4-(3,4-difluoro-5-methoxyphenyl)-1H-1,2,3-triazol-1-yl)-5-hydroxy-N-((1S,2S)-2-hydroxycyclopentyl)-6-(hydroxymethyl)-3-methoxytetrahydro-2H-pyran-2-carboxamide] yielded a 50% inhibitory concentration (IC50) of 29.5 nM. This counts as double-digit nanomolar.
To `COc1cc(-c2cn([C@H]3[C@@H](O)[C@@H](CO)O[C@@H](C(=O)N(c4cc(Br)cc(C#N)c4)[C@H]4CCC[C@@H]4O)[C@@H]3OC)nn2)cc(F)c1F` [Example 1.3.5, (2R,3R,4S,5R,6R)-N-(3-bromo-5-cyanophenyl)-4-(4-(3,4-difluoro-5-methoxyphenyl)-1H-1,2,3-triazol-1-yl)-5-hydroxy-N-((1S,2S)-2-hydroxycyclopentyl)-6-(hydroxymethyl)-3-methoxytetrahydro-2H-pyran-2-carboxamide] belongs 25.4 nM.
On to `COc1cc(-c2cn([C@H]3[C@@H](O)[C@@H](CO)O[C@@H](C(=O)N(c4cc(Br)cc(Br)c4)[C@H]4CCC[C@@H]4O)[C@@H]3OC)nn2)cc(F)c1F` [Example 1.3.11, (2R,3R,4S,5R,6R)-N-(3,5-dibromophenyl)-4-(4-(3,4-difluoro-5-methoxyphenyl)-1H-1,2,3-triazol-1-yl)-5-hydroxy-N-((1S,2S)-2-hydroxycyclopentyl)-6-(hydroxymethyl)-3-methoxytetrahydro-2H-pyran-2-carboxamide], for which the IC50 worked out at 28.8 nM.
For the compound `COc1cc(-c2cn([C@H]3[C@@H](O)[C@@H](CO)O[C@@H](C(=O)N(c4cc(Br)cc(Br)c4)[C@@H]4CCC[C@H]4O)[C@@H]3OC)nn2)cc(F)c1F` [Example 1.3.11R, (2R,3R,4S,5R,6R)—N-(3,5-dibromophenyl)-4-(4-(3,4-difluoro-5-methoxyphenyl)-1H-1,2,3-triazol-1-yl)-5-hydroxy-N-((1R,2R)-2-hydroxycyclopentyl)-6-(hydroxymethyl)-3-methoxytetrahydro-2H-pyran-2-carboxamide], the IC50 was determined as 277 nM.
The figure for `COc1cc(-c2cn([C@H]3[C@@H](O)[C@@H](CO)O[C@@H](C(=O)N(c4cc(C)cc(Br)c4)[C@H]4CCC[C@@H]4O)[C@@H]3OC)nn2)cc(F)c1F` [Example 1.3.12, (2R,3R,4S,5R,6R)-N-(3-bromo-5-methylphenyl)-4-(4-(3,4-difluoro-5-methoxyphenyl)-1H-1,2,3-triazol-1-yl)-5-hydroxy-N-((1S,2S)-2-hydroxycyclopentyl)-6-(hydroxymethyl)-3-methoxytetrahydro-2H-pyran-2-carboxamide] is 42.1 nM; for `COc1cc(-c2cn([C@H]3[C@@H](O)[C@@H](CO)O[C@@H](C(=O)N(c4cc(C)cc(Br)c4)[C@@H]4CCC[C@H]4O)[C@@H]3OC)nn2)cc(F)c1F` [Example 1.3.12R, (2R,3R,4S,5R,6R)-N-(3-bromo-5-methylphenyl)-4-(4-(3,4-difluoro-5-methoxyphenyl)-1H-1,2,3-triazol-1-yl)-5-hydroxy-N-((1R,2R)-2-hydroxycyclopentyl)-6-(hydroxymethyl)-3-methoxytetrahydro-2H-pyran-2-carboxamide] it is 411 nM.
To `CO[C@@H]1[C@@H](n2cc(-c3cc(F)c(C)c(F)c3)nn2)[C@@H](O)[C@@H](CO)O[C@H]1C(=O)N(c1cc(Cl)cc(Cl)c1)[C@H]1CCC[C@@H]1O` [Example 1.4.2, (2R,3R,4S,5R,6R)-N-(3,5-dichlorophenyl)-4-(4-(3,5-difluoro-4-methylphenyl)-1H-1,2,3-triazol-1-yl)-5-hydroxy-N-((1S,2S)-2-hydroxycyclopentyl)-6-(hydroxymethyl)-3-methoxytetrahydro-2H-pyran-2-carboxamide] belongs 44.8 nM.
The figure for `CO[C@@H]1[C@@H](n2cc(-c3cc(F)c(C)c(F)c3)nn2)[C@@H](O)[C@@H](CO)O[C@H]1C(=O)N(c1cc(Cl)cc(C#N)c1)[C@H]1CCC[C@@H]1O` [Example 1.4.4, (2R,3R,4S,5R,6R)-N-(3-chloro-5-cyanophenyl)-4-(4-(3,5-difluoro-4-methylphenyl)-1H-1,2,3-triazol-1-yl)-5-hydroxy-N-((1S,2S)-2-hydroxycyclopentyl)-6-(hydroxymethyl)-3-methoxytetrahydro-2H-pyran-2-carboxamide] is 17.3 nM; for `CO[C@@H]1[C@@H](n2cc(-c3cc(F)c(C)c(F)c3)nn2)[C@@H](O)[C@@H](CO)O[C@H]1C(=O)N(c1cc(Cl)cc(C#N)c1)[C@@H]1CCC[C@H]1O` [Example 1.4.4R, (2R,3R,4S,5R,6R)-N-(3-chloro-5-cyanophenyl)-4-(4-(3,5-difluoro-4-methylphenyl)-1H-1,2,3-triazol-1-yl)-5-hydroxy-N-((1R,2R)-2-hydroxycyclopentyl)-6-(hydroxymethyl)-3-methoxytetrahydro-2H-pyran-2-carboxamide] it is 74.8 nM.
On to `CO[C@@H]1[C@@H](n2cc(-c3cc(F)c(C)c(F)c3)nn2)[C@@H](O)[C@@H](CO)O[C@H]1C(=O)N(c1cc(Br)cc(C#N)c1)[C@H]1CCC[C@@H]1O` [Example 1.4.5, (2R,3R,4S,5R,6R)-N-(3-bromo-5-cyanophenyl)-4-(4-(3,5-difluoro-4-methylphenyl)-1H-1,2,3-triazol-1-yl)-5-hydroxy-N-((1S,2S)-2-hydroxycyclopentyl)-6-(hydroxymethyl)-3-methoxytetrahydro-2H-pyran-2-carboxamide], for which the IC50 amounted to 16.9 nM.
To `CO[C@@H]1[C@@H](n2cc(-c3cc(F)c(Cl)c(F)c3)nn2)[C@@H](O)[C@@H](CO)O[C@H]1C(=O)N(c1cc(Cl)cc(C#N)c1)[C@H]1CCC[C@@H]1O` [Example 1.5.4, (2R,3R,4S,5R,6R)-4-(4-(4-chloro-3,5-difluorophenyl)-1H-1,2,3-triazol-1-yl)-N-(3-chloro-5-cyanophenyl)-5-hydroxy-N-((1S,2S)-2-hydroxycyclopentyl)-6-(hydroxymethyl)-3-methoxytetrahydro-2H-pyran-2-carboxamide] belongs 36.7 nM; to `CO[C@@H]1[C@@H](n2cc(-c3cc(F)c(Cl)c(F)c3)nn2)[C@@H](O)[C@@H](CO)O[C@H]1C(=O)N(c1cc(Cl)cc(C#N)c1)[C@@H]1CCC[C@H]1O` [Example 1.5.4R, (2R,3R,4S,5R,6R)-4-(4-(4-chloro-3,5-difluorophenyl)-1H-1,2,3-triazol-1-yl)-N-(3-chloro-5-cyanophenyl)-5-hydroxy-N-((1R,2R)-2-hydroxycyclopentyl)-6-(hydroxymethyl)-3-methoxytetrahydro-2H-pyran-2-carboxamide], 153 nM; to `CO[C@@H]1[C@@H](n2cc(-c3cc(F)c(Cl)c(F)c3)nn2)[C@@H](O)[C@@H](CO)O[C@H]1C(=O)N(c1cc(Br)cc(C#N)c1)[C@H]1CCC[C@@H]1O` [Example 1.5.5, (2R,3R,4S,5R,6R)-N-(3-bromo-5-cyanophenyl)-4-(4-(4-chloro-3,5-difluorophenyl)-1H-1,2,3-triazol-1-yl)-5-hydroxy-N-((1S,2S)-2-hydroxycyclopentyl)-6-(hydroxymethyl)-3-methoxytetrahydro-2H-pyran-2-carboxamide], 33.9 nM.
Consider `CO[C@@H]1[C@@H](n2cc(-c3cc(F)c(Br)c(F)c3)nn2)[C@@H](O)[C@@H](CO)O[C@H]1C(=O)N(c1cc(Cl)cc(C#N)c1)[C@H]1CCC[C@@H]1O` [Example 1.6.4, (2R,3R,4S,5R,6R)-4-(4-(4-bromo-3,5-difluorophenyl)-1H-1,2,3-triazol-1-yl)-N-(3-chloro-5-cyanophenyl)-5-hydroxy-N-((1S,2S)-2-hydroxycyclopentyl)-6-(hydroxymethyl)-3-methoxytetrahydro-2H-pyran-2-carboxamide], for which the IC50 worked out at 28.6 nM.
The figure for `CO[C@@H]1[C@@H](n2cc(-c3cc(F)c(Br)c(F)c3)nn2)[C@@H](O)[C@@H](CO)O[C@H]1C(=O)N(c1cc(Cl)cc(C#N)c1)[C@@H]1CCC[C@H]1O` [Example 1.6.4R, (2R,3R,4S,5R,6R)-4-(4-(4-bromo-3,5-difluorophenyl)-1H-1,2,3-triazol-1-yl)-N-(3-chloro-5-cyanophenyl)-5-hydroxy-N-((1R,2R)-2-hydroxycyclopentyl)-6-(hydroxymethyl)-3-methoxytetrahydro-2H-pyran-2-carboxamide] is 214 nM; for `CO[C@@H]1[C@@H](n2cc(-c3cc(F)c(F)c(Cl)c3)nn2)[C@@H](O)[C@@H](CO)O[C@H]1C(=O)N(c1cc(Cl)cc(C#N)c1)[C@H]1CCC[C@@H]1O` [Example 1.7.4, (2R,3R,4S,5R,6R)-4-(4-(3-chloro-4,5-difluorophenyl)-1H-1,2,3-triazol-1-yl)-N-(3-chloro-5-cyanophenyl)-5-hydroxy-N-((1S,2S)-2-hydroxycyclopentyl)-6-(hydroxymethyl)-3-methoxytetrahydro-2H-pyran-2-carboxamide] it is 33.4 nM; for `CO[C@@H]1[C@@H](n2cc(-c3cc(F)c(F)c(Cl)c3)nn2)[C@@H](O)[C@@H](CO)O[C@H]1C(=O)N(c1cc(Cl)cc(C#N)c1)[C@@H]1CCC[C@H]1O` [Example 1.7.4R, (2R,3R,4S,5R,6R)-4-(4-(3-chloro-4,5-difluorophenyl)-1H-1,2,3-triazol-1-yl)-N-(3-chloro-5-cyanophenyl)-5-hydroxy-N-((1R,2R)-2-hydroxycyclopentyl)-6-(hydroxymethyl)-3-methoxytetrahydro-2H-pyran-2-carboxamide] it is 103 nM.
